# Test results: US11174464B2, “Method for preparing osteoblasts and osteoblast inducer” (KYOTO PREFECTURAL PUBLIC UNIVERSITY CORPORATION, priority 2014, dated 2021)
# Legend:
# human Runx2 gene = test: Real-time RT-PCR of Runx2 mRNA in cultured HDF; assay type: cell-based; settings: induction medium, 28 days (FIG. 17)
# Protocol: The culture was performed as in “1” above by adding the stated compounds.
# Then, total RNA was collected from the cells using ISOGEN II, and cDNA was synthesized using ReverTra Ace qPCR RT Master Mix. Real-time PCR Master Mix, and a TaqMan probe and primers specific to human Runx2 gene were added, and real-time RT-PCR was performed using an AB7300 Real-Time PCR System.
# [1] = test system: human alkaline phosphatase (ALP) gene; test: Real-time RT-PCR of ALP mRNA in cultured HDF; assay type: cell-based; settings: 10% FBS induction medium, 28 days, relative to normal human fibroblasts = 1 (FIG. 13)
# Protocol: Then, total RNA was collected from the cells using ISOGEN II, and cDNA was synthesized using ReverTra Ace qPCR RT Master Mix. Real-time PCR Master Mix, TaqMan probes, specific primers, and cDNA were mixed, and real-time RT-PCR was performed using an AB7300 Real-Time PCR System to quantify the mRNA of Runx2, osteocalcin (OC), and alkaline phosphatase (ALP) genes. […] Further, RNA was harvested from human osteoblasts, and the same analysis was performed.
# The culture was performed as in “2-1” above by adding the stated compounds.
# Then, total RNA was collected from the cells using ISOGEN II, and cDNA was synthesized using ReverTra Ace qPCR RT Master Mix. Real-time PCR Master Mix, and a TaqMan probe and primers specific to a human alkaline phosphatase (ALP) gene were added, and real-time RT-PCR was performed using an AB7300 Real-Time PCR System. Furthermore, total RNA was extracted from osteoblasts from normal human bone, and analysis was performed in a similar manner.
# Furthermore, total RNA was extracted from osteoblasts from normal human bone, and analysis was performed in a similar manner.
# Twenty-eight days after the culture, the mRNA expression of ALP gene in the cells in each well was analyzed by real-time RT-PCR, as in “2-3” above. Furthermore, total RNA was extracted from osteoblasts from normal human bone, and analysis was performed in a similar manner.
# [2] = test system: normal human dermal fibroblast (HDF) strain; test: Alizarin Red S staining of calcified bone matrix in fibroblasts cultured in induction medium; settings: for Alizarin Red S staining intensity (OD 550-650 nm), ability to produce calcified matrix: 28 days (FIG. 10); for Alizarin Red S staining images and intensity (OD 550-650 nm), ability to produce calcified matrix: 28 days (FIG. 19)
# [3] = test system: Normal human white preadipocytes (HWPs); test: Alizarin Red S staining, induction from normal human white preadipocytes; assay type: cell-based; settings: induction medium with 10% FBS, 21 days (FIG. 23)
# human osteocalcin (OC) = test: Real-time RT-PCR of osteocalcin (OC) mRNA in cultured HDF; assay type: cell-based; settings: 5% human serum induction medium, 28 days (FIG. 16)
# Protocol: The culture was performed as in “2-6” above by adding the stated compounds.
# Then, total RNA was collected from the cells using ISOGEN II, and cDNA was synthesized using ReverTra Ace qPCR RT Master Mix. Real-time PCR Master Mix, and a TaqMan probe and primers specific to human osteocalcin (OC) were added, and real-time RT-PCR was performed using an AB7300 Real-Time PCR System.
SMILES,Runx2 mRNA expression by real-time RT-PCR (human Runx2 gene),ALP mRNA expression by real-time RT-PCR [1],"Alizarin Red S staining intensity (OD 550-650 nm), ability to produce calcified matrix ([2]; induction medium with 10% FBS)","Alizarin Red S staining images and intensity (OD 550-650 nm), ability to produce calcified matrix [2]","Alizarin Red S staining images, ability to produce calcified matrix [3]","Alizarin Red S staining images and intensity, ability to produce calcified matrix ([2]; induction medium with 5% human serum, 28 days (FIG. 12))","Alizarin Red S staining images and intensity, ability to produce calcified matrix ([2]; induction medium with 10% FBS, 28 days (FIG. 11))",osteocalcin (OC) mRNA expression by real-time RT-PCR (human osteocalcin (OC))
"CC(C)c1c(C(=O)Nc2ccccc2)c(-c2ccccc2)c(-c2ccc(F)cc2)n1CC[C@@H](O)C[C@@H](O)CC(=O)O [AS, atorvastatin]",induced the mRNA expression of Runx2 gene,induced the mRNA expression of ALP gene,induced the ability to produce calcified matrix,,,,,
O=C(O)c1ccc2c(c1)nc(Nc1cccc(Cl)c1)c1ccncc12 [CX-4945],,,,no effect,,,,
"NC(=O)c1ccc(-c2nc(-c3ccc4c(c3)OCCO4)c(-c3ccccn3)[nH]2)cc1 [D4476, 4-[4-(2,3-dihydro-1,4-benzodioxin-6-yl)-5-(2-pyridinyl)1H-imidazol-2-yl]-benzamide]",,induced the mRNA expression of ALP gene,induced the ability to produce calcified matrix,induced the ability to produce calcified matrix,strongly induced the ability to produce calcified matrix,induced a higher ability to produce calcified matrix,induced the ability to produce calcified matrix,
"Nc1nccc2c1ncn2[C@@H]1C=C(CO)[C@@H](O)[C@H]1O [DZNep, 3-deazaneplanocin A]",,,,induced the ability to produce calcified matrix,,,,
"CC[C@H](C)C(=O)O[C@H]1C[C@@H](C)C=C2C=C[C@H](C)[C@H](CC[C@@H]3C[C@@H](O)CC(=O)O3)[C@H]21 [LS, lovastatin]",induced the mRNA expression of Runx2 gene,induced the mRNA expression of ALP gene,induced the ability to produce calcified matrix,,,,,
"CC(C)c1nc(N(C)S(C)(=O)=O)nc(-c2ccc(F)cc2)c1/C=C/[C@@H](O)C[C@@H](O)CC(=O)O [RS, rosuvastatin]",induced the mRNA expression of Runx2 gene,induced the mRNA expression of ALP gene,induced the ability to produce calcified matrix,,,,,induced the mRNA expression of osteocalcin
